Assay results published in the NIST ThermoML archive (doi:10.1016/j.jct.2008.02.019).

Experiments:
[1] = xn = mol fraction of the nth substance listed; conditions: 101 kPa, Liquid
[2] = excess molar enthalpy (molar enthalpy of mixing); xn = mol fraction of the nth substance listed; conditions: 101 kPa, Liquid, Flow calorimetry
[3] = 318.15 K; 101.33 kPa; Liquid; Vibrating tube method
[4] = refractive index (Na D-line) (dimensionless); conditions: 101.33 kPa, Liquid, Standard Abbe refractometry

CCCC[n+]1ccc(C)cc1.F[B-](F)(F)F [1-butyl-4-methylpyridinium tetrafluoroborate] + CO
Conditions | excess molar enthalpy [kcal/mol] | mass density [kg/m3]
[1], 298.15 K, x1 = 0.0539 | – | 880.6
[1], 298.15 K, x1 = 0.0819 | – | 916.2
[1], 298.15 K, x1 = 0.095 | – | 931.5
[1], 298.15 K, x1 = 0.1078 | – | 944.4
[1], 298.15 K, x1 = 0.1549 | – | 984.7
[1], 298.15 K, x1 = 0.2038 | – | 1017.3
[1], 298.15 K, x1 = 0.3016 | – | 1064.3
[1], 298.15 K, x1 = 0.3729 | – | 1088.5
[1], 298.15 K, x1 = 0.4548 | – | 1110.8
[1], 298.15 K, x1 = 0.5027 | – | 1120.9
[1], 298.15 K, x1 = 0.5533 | – | 1131.2
[1], 298.15 K, x1 = 0.6076 | – | 1140.4
[1], 298.15 K, x1 = 0.7174 | – | 1155.8
[1], 298.15 K, x1 = 0.8053 | – | 1165.6
[1], 298.15 K, x1 = 0.9129 | – | 1176
[1], 318.15 K, x1 = 0.0489 | – | 855.9
[1], 318.15 K, x1 = 0.096 | – | 915.9
[1], 318.15 K, x1 = 0.1439 | – | 961.3
[1], 318.15 K, x1 = 0.1894 | – | 994.2
[1], 318.15 K, x1 = 0.3003 | – | 1049.4
[1], 318.15 K, x1 = 0.3551 | – | 1068.5
[1], 318.15 K, x1 = 0.4349 | – | 1091.7
[1], 318.15 K, x1 = 0.4888 | – | 1103.9
[1], 318.15 K, x1 = 0.5342 | – | 1112.7
[1], 318.15 K, x1 = 0.5959 | – | 1123.9
[1], 318.15 K, x1 = 0.6592 | – | 1133.5
[1], 318.15 K, x1 = 0.7266 | – | 1142.3
[1], 318.15 K, x1 = 0.8378 | – | 1154.8
[1], 318.15 K, x1 = 0.9046 | – | 1161.4
[2], 298.15 K, x1 = 0.0155 | 0.0607 | –
[2], 298.15 K, x1 = 0.0359 | 0.116 | –
[2], 298.15 K, x1 = 0.0582 | 0.159 | –
[2], 298.15 K, x1 = 0.0832 | 0.217 | –
[2], 298.15 K, x1 = 0.1111 | 0.27 | –
[2], 298.15 K, x1 = 0.1397 | 0.329 | –
[2], 298.15 K, x1 = 0.1698 | 0.377 | –
[2], 298.15 K, x1 = 0.1711 | 0.392 | –
[2], 298.15 K, x1 = 0.1953 | 0.415 | –
[2], 298.15 K, x1 = 0.2214 | 0.435 | –
[2], 298.15 K, x1 = 0.2412 | 0.453 | –
[2], 298.15 K, x1 = 0.2755 | 0.469 | –
[2], 298.15 K, x1 = 0.3109 | 0.48 | –
[2], 298.15 K, x1 = 0.3617 | 0.475 | –
[2], 298.15 K, x1 = 0.427 | 0.453 | –
[2], 298.15 K, x1 = 0.507 | 0.411 | –
[2], 298.15 K, x1 = 0.6029 | 0.35 | –
[2], 298.15 K, x1 = 0.7161 | 0.272 | –
[2], 298.15 K, x1 = 0.8469 | 0.154 | –
[2], 318.2 K, x1 = 0.0102 | 0.0337 | –
[2], 318.21 K, x1 = 0.0238 | 0.0662 | –
[2], 318.22 K, x1 = 0.0405 | 0.098 | –
[2], 318.23 K, x1 = 0.0635 | 0.178 | –
[2], 318.24 K, x1 = 0.0898 | 0.261 | –
[2], 318.25 K, x1 = 0.1174 | 0.336 | –
[2], 318.26 K, x1 = 0.1476 | 0.403 | –
[2], 318.27 K, x1 = 0.1778 | 0.457 | –
[2], 318.28 K, x1 = 0.1969 | 0.498 | –
[2], 318.29 K, x1 = 0.2103 | 0.529 | –
[2], 318.3 K, x1 = 0.2392 | 0.559 | –
[2], 318.31 K, x1 = 0.2699 | 0.579 | –
[2], 318.32 K, x1 = 0.3021 | 0.603 | –
[2], 318.33 K, x1 = 0.3442 | 0.61 | –
[2], 318.34 K, x1 = 0.3846 | 0.619 | –
[2], 318.35 K, x1 = 0.4397 | 0.614 | –
[2], 318.36 K, x1 = 0.4968 | 0.595 | –
[2], 318.37 K, x1 = 0.5563 | 0.57 | –
[2], 318.38 K, x1 = 0.6281 | 0.533 | –
[2], 318.39 K, x1 = 0.7109 | 0.466 | –
[2], 318.4 K, x1 = 0.8042 | 0.362 | –
[2], 318.41 K, x1 = 0.8793 | 0.239 | –
[2], 318.42 K, x1 = 0.9607 | 0.0937 | –

CCCC[n+]1ccc(C)cc1.F[B-](F)(F)F [1-butyl-4-methylpyridinium tetrafluoroborate] + O
Conditions | excess molar enthalpy [kcal/mol] | mass density [kg/m3]
[1], 298.15 K, x1 = 0.0502 | – | 1060.5
[1], 298.15 K, x1 = 0.1042 | – | 1094.8
[1], 298.15 K, x1 = 0.1512 | – | 1112.7
[1], 298.15 K, x1 = 0.2006 | – | 1126.1
[1], 298.15 K, x1 = 0.2543 | – | 1136.1
[1], 298.15 K, x1 = 0.2948 | – | 1142.4
[1], 298.15 K, x1 = 0.4 | – | 1154.1
[1], 298.15 K, x1 = 0.4913 | – | 1161.5
[1], 298.15 K, x1 = 0.6014 | – | 1168.3
[1], 298.15 K, x1 = 0.7228 | – | 1173.9
[1], 298.15 K, x1 = 0.7493 | – | 1175.1
[1], 298.15 K, x1 = 0.783 | – | 1176.4
[1], 298.15 K, x1 = 0.8449 | – | 1178.7
[1], 298.15 K, x1 = 0.8731 | – | 1179.8
[1], 298.15 K, x1 = 0.9504 | – | 1182.1
[1], 318.15 K, x1 = 0.0327 | – | 1033
[1], 318.15 K, x1 = 0.0994 | – | 1080
[1], 318.15 K, x1 = 0.1505 | – | 1098.7
[1], 318.15 K, x1 = 0.1989 | – | 1111.3
[1], 318.15 K, x1 = 0.236 | – | 1118.6
[1], 318.15 K, x1 = 0.2921 | – | 1127.6
[1], 318.15 K, x1 = 0.3237 | – | 1131.9
[1], 318.15 K, x1 = 0.4169 | – | 1141.3
[1], 318.15 K, x1 = 0.4841 | – | 1146.6
[1], 318.15 K, x1 = 0.6083 | – | 1154.2
[1], 318.15 K, x1 = 0.6715 | – | 1157.5
[1], 318.15 K, x1 = 0.7125 | – | 1159.2
[1], 318.15 K, x1 = 0.7299 | – | 1160
[1], 318.15 K, x1 = 0.8124 | – | 1163
[1], 318.15 K, x1 = 0.8565 | – | 1164.7
[1], 318.15 K, x1 = 0.8888 | – | 1165.8
[2], 298.15 K, x1 = 0.0072 | 0.0249 | –
[2], 298.15 K, x1 = 0.0145 | 0.0473 | –
[2], 298.15 K, x1 = 0.0215 | 0.0679 | –
[2], 298.15 K, x1 = 0.0303 | 0.0908 | –
[2], 298.15 K, x1 = 0.0406 | 0.117 | –
[2], 298.15 K, x1 = 0.0526 | 0.147 | –
[2], 298.15 K, x1 = 0.0659 | 0.177 | –
[2], 298.15 K, x1 = 0.0805 | 0.209 | –
[2], 298.15 K, x1 = 0.0963 | 0.243 | –
[2], 298.15 K, x1 = 0.1144 | 0.278 | –
[2], 298.15 K, x1 = 0.1563 | 0.349 | –
[2], 298.15 K, x1 = 0.1863 | 0.38 | –
[2], 298.15 K, x1 = 0.2196 | 0.407 | –
[2], 298.15 K, x1 = 0.2577 | 0.424 | –
[2], 298.15 K, x1 = 0.2972 | 0.433 | –
[2], 298.15 K, x1 = 0.3449 | 0.433 | –
[2], 298.15 K, x1 = 0.3974 | 0.42 | –
[2], 298.15 K, x1 = 0.4857 | 0.379 | –
[2], 298.15 K, x1 = 0.5954 | 0.32 | –
[2], 298.15 K, x1 = 0.7282 | 0.23 | –
[2], 298.15 K, x1 = 0.8706 | 0.116 | –
[2], 318.15 K, x1 = 0.0097 | 0.0449 | –
[2], 318.16 K, x1 = 0.0226 | 0.0937 | –
[2], 318.17 K, x1 = 0.0382 | 0.145 | –
[2], 318.18 K, x1 = 0.0565 | 0.197 | –
[2], 318.19 K, x1 = 0.0755 | 0.249 | –
[2], 318.2 K, x1 = 0.0949 | 0.293 | –
[2], 318.21 K, x1 = 0.1132 | 0.336 | –
[2], 318.22 K, x1 = 0.1187 | 0.36 | –
[2], 318.23 K, x1 = 0.1414 | 0.402 | –
[2], 318.24 K, x1 = 0.1695 | 0.44 | –
[2], 318.25 K, x1 = 0.2008 | 0.471 | –
[2], 318.26 K, x1 = 0.2346 | 0.499 | –
[2], 318.27 K, x1 = 0.2746 | 0.524 | –
[2], 318.28 K, x1 = 0.3253 | 0.537 | –
[2], 318.29 K, x1 = 0.383 | 0.533 | –
[2], 318.3 K, x1 = 0.441 | 0.517 | –
[2], 318.31 K, x1 = 0.5071 | 0.484 | –
[2], 318.32 K, x1 = 0.5961 | 0.42 | –
[2], 318.33 K, x1 = 0.6778 | 0.34 | –
[2], 318.34 K, x1 = 0.7866 | 0.236 | –
[2], 318.35 K, x1 = 0.9058 | 0.102 | –

CCCCCO [pentan-1-ol]
Conditions | mass density [kg/m3]
[3] | 796.1

[4]
Conditions | refractive index
298.15 K | 1.4078
318.15 K | 1.4003
